From publication PMC11005723, “Development of Complementary Photo‐arginine/lysine to Promote Discovery of Arg/Lys hPTMs Interactomes” (Advanced Science, 2024)
Where two headings read alike, the source gives them in different places. Non-standard residues stand in square brackets, D forms with d. No end group written: not given here. *: point of attachment. Biotin = O=C1N[C@H]2[C@H](CS[C@H]2CCCCC(=O)*)N1; R(dz) = photo-arginine

Test system: HEK293T nuclear lysates
Experiment: SILAC‐based pull‐down proteomics H4K5acK8ac/H4K5 (probes 8/5)
Type: binding, human

## probe 8: H4K5acK8ac peptide probe with photo‐arginine R(dz) and K(biotin) (SG[R(dz)]GK(Ac)GGK(Ac)GLGKGGK(Biotin))
  A6 log2 (H4K5ac8ac/H4K5): 0.04066
  B6 log2 (H4K5ac8ac/H4K5): 0.03161
365 nm UV 30 min, streptavidin enrichment, n = 2
  proteins enriched (SILAC proteomics H4K5acK8ac/H4K5): YEATS4 was enriched
Protein ACO2 (Q99798), replicate A6
  A6 log2 (H4K5ac8ac/H4K5): 0.4428
Protein ACO2 (Q99798), replicate B6
  B6 log2 (H4K5ac8ac/H4K5): 0.07379
Protein ACOT7 (O00154), replicate A6
  A6 log2 (H4K5ac8ac/H4K5): 0.4709
Protein ACOT7 (O00154), replicate B6
  B6 log2 (H4K5ac8ac/H4K5): -0.02566
Protein AGPS (O00116), replicate A6
  A6 log2 (H4K5ac8ac/H4K5): -0.04144
Protein AGPS (O00116), replicate B6
  B6 log2 (H4K5ac8ac/H4K5): 0.004198
Protein ALDH18A1 (P54886), replicate A6
  A6 log2 (H4K5ac8ac/H4K5): 0.1932
Protein ALDH18A1 (P54886), replicate B6
  B6 log2 (H4K5ac8ac/H4K5): 0.05067
Protein BUB3 (J3QT28), replicate A6
  A6 log2 (H4K5ac8ac/H4K5): 0.07833
Protein BUB3 (J3QT28), replicate B6
  B6 log2 (H4K5ac8ac/H4K5): 0.05185
Protein C11orf84 (Q9BUA3), replicate A6
  A6 log2 (H4K5ac8ac/H4K5): -0.4738
Protein C11orf84 (Q9BUA3), replicate B6
  B6 log2 (H4K5ac8ac/H4K5): -0.01921
Protein CCAR1 (Q8IX12), replicate A6
  A6 log2 (H4K5ac8ac/H4K5): -0.2516
Protein CCAR1 (Q8IX12), replicate B6
  B6 log2 (H4K5ac8ac/H4K5): -0.018
Protein CCT2 (P78371), replicate A6
  A6 log2 (H4K5ac8ac/H4K5): 0.3921
Protein CCT2 (P78371), replicate B6
  B6 log2 (H4K5ac8ac/H4K5): 0.08005
Protein CCT3 (B4DUR8), replicate A6
  A6 log2 (H4K5ac8ac/H4K5): 0.2904
Protein CCT3 (B4DUR8), replicate B6
  B6 log2 (H4K5ac8ac/H4K5): 0.07923
Protein CHAF1A (Q13111), replicate A6
  A6 log2 (H4K5ac8ac/H4K5): -0.1099
Protein CHAF1A (Q13111), replicate B6
  B6 log2 (H4K5ac8ac/H4K5): 0.08018
Protein CHD1L (A0A494C1F7), replicate A6
  A6 log2 (H4K5ac8ac/H4K5): 0.1451
Protein CHD1L (A0A494C1F7), replicate B6
  B6 log2 (H4K5ac8ac/H4K5): 0.0657
Protein CORO1B (Q9BR76), replicate A6
  A6 log2 (H4K5ac8ac/H4K5): 0.2889
Protein CORO1B (Q9BR76), replicate B6
  B6 log2 (H4K5ac8ac/H4K5): 0.06919
Protein CPOX (P36551), replicate A6
  A6 log2 (H4K5ac8ac/H4K5): 0.124
Protein CPOX (P36551), replicate B6
  B6 log2 (H4K5ac8ac/H4K5): 0.04785
Protein DNAJA2 (O60884), replicate A6
  A6 log2 (H4K5ac8ac/H4K5): 0.3475
Protein DNAJA2 (O60884), replicate B6
  B6 log2 (H4K5ac8ac/H4K5): -0.007896
Protein DYNC1LI1 (Q9Y6G9), replicate A6
  A6 log2 (H4K5ac8ac/H4K5): 0.04173
Protein DYNC1LI1 (Q9Y6G9), replicate B6
  B6 log2 (H4K5ac8ac/H4K5): -0.03653
Protein DYNC1LI2 (O43237), replicate A6
  A6 log2 (H4K5ac8ac/H4K5): -0.06254
Protein DYNC1LI2 (O43237), replicate B6
  B6 log2 (H4K5ac8ac/H4K5): -0.0172
Protein EEF1A2 (Q05639), replicate A6
  A6 log2 (H4K5ac8ac/H4K5): 0.1545
Protein EEF1A2 (Q05639), replicate B6
  B6 log2 (H4K5ac8ac/H4K5): 0.03088
Protein EIF3G (O75821), replicate A6
  A6 log2 (H4K5ac8ac/H4K5): -0.1739
Protein EIF3G (O75821), replicate B6
  B6 log2 (H4K5ac8ac/H4K5): 0.07863
Protein EML4 (Q9HC35), replicate A6
  A6 log2 (H4K5ac8ac/H4K5): -0.3051
Protein EML4 (Q9HC35), replicate B6
  B6 log2 (H4K5ac8ac/H4K5): 0.01001
Protein EXOSC10 (Q01780), replicate A6
  A6 log2 (H4K5ac8ac/H4K5): 0.04791
Protein EXOSC10 (Q01780), replicate B6
  B6 log2 (H4K5ac8ac/H4K5): -0.03432
Protein FEN1 (P39748), replicate A6
  A6 log2 (H4K5ac8ac/H4K5): 0.2678
Protein FEN1 (P39748), replicate B6
  B6 log2 (H4K5ac8ac/H4K5): 0.04436
Protein FKBP4 (Q02790), replicate A6
  A6 log2 (H4K5ac8ac/H4K5): -0.547
Protein FKBP4 (Q02790), replicate B6
  B6 log2 (H4K5ac8ac/H4K5): -0.03149
Protein FTO (A0A1B0GTY1), replicate A6
  A6 log2 (H4K5ac8ac/H4K5): 0.04491
Protein FTO (A0A1B0GTY1), replicate B6
  B6 log2 (H4K5ac8ac/H4K5): 0.03394
Protein FUBP1 (Q96AE4), replicate A6
  A6 log2 (H4K5ac8ac/H4K5): -0.499
Protein FUBP1 (Q96AE4), replicate B6
  B6 log2 (H4K5ac8ac/H4K5): 0.06296
Protein GATAD2B (A0A0U1RRM1), replicate A6
  A6 log2 (H4K5ac8ac/H4K5): 0.09181
Protein GATAD2B (A0A0U1RRM1), replicate B6
  B6 log2 (H4K5ac8ac/H4K5): -0.04991
Protein GMPS (P49915), replicate A6
  A6 log2 (H4K5ac8ac/H4K5): 0.3016
Protein GMPS (P49915), replicate B6
  B6 log2 (H4K5ac8ac/H4K5): -0.02008
Protein GPKOW (Q92917), replicate A6
  A6 log2 (H4K5ac8ac/H4K5): -0.007755
Protein GPKOW (Q92917), replicate B6
  B6 log2 (H4K5ac8ac/H4K5): 0.07952
Protein GTF2I (P78347), replicate A6
  A6 log2 (H4K5ac8ac/H4K5): 0.3176
Protein GTF2I (P78347), replicate B6
  B6 log2 (H4K5ac8ac/H4K5): -0.03285
Protein HADHA (P40939), replicate A6
  A6 log2 (H4K5ac8ac/H4K5): 0.03109
Protein HADHA (P40939), replicate B6
  B6 log2 (H4K5ac8ac/H4K5): 0.08176
Protein HNRNPA2B1 (P22626), replicate A6
  A6 log2 (H4K5ac8ac/H4K5): -0.08912
Protein HNRNPA2B1 (P22626), replicate B6
  B6 log2 (H4K5ac8ac/H4K5): 0.03979
Protein HNRNPAB (D6R9P3), replicate A6
  A6 log2 (H4K5ac8ac/H4K5): -0.001487
Protein HNRNPAB (D6R9P3), replicate B6
  B6 log2 (H4K5ac8ac/H4K5): 0.001897
Protein HNRNPD (D6RAF8), replicate A6
  A6 log2 (H4K5ac8ac/H4K5): -0.05205
Protein HNRNPD (D6RAF8), replicate B6
  B6 log2 (H4K5ac8ac/H4K5): 0.06546
Protein HNRNPM (A0A087X0X3), replicate A6
  A6 log2 (H4K5ac8ac/H4K5): 0.04259
Protein HNRNPM (A0A087X0X3), replicate B6
  B6 log2 (H4K5ac8ac/H4K5): 0.03533
Protein HNRNPUL1 (A0A0A0MRA5), replicate A6
  A6 log2 (H4K5ac8ac/H4K5): 0.04263
Protein HNRNPUL1 (A0A0A0MRA5), replicate B6
  B6 log2 (H4K5ac8ac/H4K5): 0.07976
Protein HSP90AB1 (P08238), replicate A6
  A6 log2 (H4K5ac8ac/H4K5): 0.1705
Protein HSP90AB1 (P08238), replicate B6
  B6 log2 (H4K5ac8ac/H4K5): -0.003539
Protein ILF3 (Q12906), replicate A6
  A6 log2 (H4K5ac8ac/H4K5): -0.01185
Protein ILF3 (Q12906), replicate B6
  B6 log2 (H4K5ac8ac/H4K5): 0.0307
Protein IRS4 (O14654), replicate A6
  A6 log2 (H4K5ac8ac/H4K5): 0.9009
Protein IRS4 (O14654), replicate B6
  B6 log2 (H4K5ac8ac/H4K5): 0.04996
Protein KHDRBS1 (Q07666), replicate A6
  A6 log2 (H4K5ac8ac/H4K5): -0.03568
Protein KHDRBS1 (Q07666), replicate B6
  B6 log2 (H4K5ac8ac/H4K5): 0.03173
Protein KIF23 (A0A2U3TZL8), replicate A6
  A6 log2 (H4K5ac8ac/H4K5): -0.125
Protein KIF23 (A0A2U3TZL8), replicate B6
  B6 log2 (H4K5ac8ac/H4K5): 0
Protein LARS (Q9P2J5), replicate A6
  A6 log2 (H4K5ac8ac/H4K5): 0.1335
Protein LARS (Q9P2J5), replicate B6
  B6 log2 (H4K5ac8ac/H4K5): 0.07151
Protein LEMD3 (Q9Y2U8), replicate A6
  A6 log2 (H4K5ac8ac/H4K5): 0.3015
Protein LEMD3 (Q9Y2U8), replicate B6
  B6 log2 (H4K5ac8ac/H4K5): -0.02986
Protein MAZ (I3L2Z5), replicate A6
  A6 log2 (H4K5ac8ac/H4K5): 0.4619
Protein MAZ (I3L2Z5), replicate B6
  B6 log2 (H4K5ac8ac/H4K5): 0.02009
Protein MCM2 (P49736), replicate A6
  A6 log2 (H4K5ac8ac/H4K5): -0.3105
Protein MCM2 (P49736), replicate B6
  B6 log2 (H4K5ac8ac/H4K5): 0.01892
Protein MCM4 (E5RG31), replicate A6
  A6 log2 (H4K5ac8ac/H4K5): -0.08812
Protein MCM4 (E5RG31), replicate B6
  B6 log2 (H4K5ac8ac/H4K5): 0.02676
Protein MCM5 (P33992), replicate A6
  A6 log2 (H4K5ac8ac/H4K5): 0.07464
Protein MCM5 (P33992), replicate B6
  B6 log2 (H4K5ac8ac/H4K5): 0.03074
Protein MCM6 (Q14566), replicate A6
  A6 log2 (H4K5ac8ac/H4K5): 0.0904
Protein MCM6 (Q14566), replicate B6
  B6 log2 (H4K5ac8ac/H4K5): 0.06523
Protein MLL2 (O14686), replicate A6
  A6 log2 (H4K5ac8ac/H4K5): 0.2969
Protein MLL2 (O14686), replicate B6
  B6 log2 (H4K5ac8ac/H4K5): 0.009441
Protein MRPL37 (Q9BZE1), replicate A6
  A6 log2 (H4K5ac8ac/H4K5): 0.1893
Protein MRPL37 (Q9BZE1), replicate B6
  B6 log2 (H4K5ac8ac/H4K5): -0.03363
Protein MYH9 (P35579), replicate A6
  A6 log2 (H4K5ac8ac/H4K5): 0.0533
